According to patent publication US6376522B1, “4-hydroxyisothiazole compounds” (Ciba Specialty Chemicals Corporation, priority 1999, dated 2002):
≈ marks a conversion by molar mass, not a printed value. Read-outs that look alike come from different tables or passages of the source.

How the values were obtained:
Assay in all cases: Agar incorporation test, MIC
Format in all cases: cell-based
[1] = test system: Candida albicans ATCC 10231; settings: ATCC10231, Example 3, according to Example 2, read-out: MIC CA = Candida albicans ATCC 10231
Method: (§1) An agar incorporation test is carried out to determine the MIC (Minimum Inhibitory Concentration [ppm]) of the compound of formula (101): […]
(§2) The test substances are dissolved in Ethanol, and a dilution series of the compound of the formula […] in agar are prepared.
(§3) Anaerobic bacteria and dermatophytes are cultivated on agar-plates, and washes off with Mueller-Hinton bouillon. Aerobic bacteria are cultivated in Mueller-Hinton bouillon overnight. The test germ suspension are diluted with Mueller-Hinton bouillon to a density of McFarland standard 0.5.
(§4) 10 μl of each germ suspension is dropped onto the agar plates containing the test substance, and the plates are then incubated at 36° C. for 2 to 3 days. (Aerobic bacteria are incubated at 36° C. for 48 hours, anaerobic bacteria are incubated at 30° C. for 72 hours). As controls, the bacterial suspensions are applied to agar plates without test substances. In order to exclude the solvent ethanol having an influence on the growth properties, the bacterial suspensions are applied to agar plates containing ethanol, but without test substance.
(§5) After the plates have been incubated, the growth of the bacteria on the test-substance-containing plates is compared with that of the control plates.

[2] = test system: Escherichia coli NCTC 8196; settings: NCTC8196, Example 3, according to Example 2, read-out: MIC EC = Escherichia coli NCTC 8196
Method: as §1, §2, §3, §4, §5

[3] = test system: Staphylococcus aureus ATCC 6538
Method: as §1, §2, §3, §4, §5

[4] = test system: Aspergillus niger ATCC 6275; settings: ATCC6275, Example 3, according to Example 2
Method: as §1, §2, §3, §4, §5

[5] = test system: Staphylococcus hominis DSM 20328; settings: DSM20328, Example 3, according to Example 2, read-out: MIC SH = Staphylococcus hominis DSM 20328
Method: as §1, §2, §3, §4, §5

[6] = test system: Corynebacterium xerosis ATCC 373; settings: ATCC373, Table 1, 36° C., read-out: MIC (Minimum Inhibitory Concentration) Corynebacterium xerosis ATCC 373
Method: as §1, §2, §3, §4, §5

[7] = test system: Staphylococcus hominis DSM 20330; settings: DSM20330, Table 1, 36° C., read-out: MIC (Minimum Inhibitory Concentration) Staphylococcus hominis DSM 20330
Method: as §1, §2, §3, §4, §5

[8] = ATCC6538, Example 3, according to Example 2, read-out: MIC SA = Staphylococcus aureus ATCC 6538

MIC [1] [µg/mL] | MIC [2] [µg/mL] | MIC [3, 8] [µg/mL] | MIC [4] [µg/mL] | MIC [5] [µg/mL] | Structure (SMILES) | MIC [6] [µg/mL] | MIC [7] [µg/mL] | MIC ([3]; ATCC6538, read-out: MIC (Minimum Inhibitory Concentration) Staphylococcus aureus ATCC 6538) [µg/mL]
50 (≈ 261 µM) | 50 (≈ 261 µM) | 50 (≈ 261 µM) | 10 (≈ 52.3 µM) |  | Cc1snc(-c2ccccc2)c1O [(105)] |  |  | 
100 (≈ 315 µM) |  |  |  |  | O=C(c1ccc(F)cc1)c1snc(-c2ccc(F)cc2)c1O [(108)] |  |  | 
 |  |  |  |  | Oc1c(-c2ccccc2)nsc1-c1ccccc1 [(101), 3,5-diphenyl-4-hydroxyisothiazole] | 5 (≈ 19.7 µM) | 50 (≈ 197 µM) | 5 (≈ 19.7 µM)
250 (≈ 1410 µM) | 250 (≈ 1410 µM) | 50 (≈ 282 µM) | 100 (≈ 564 µM) |  | Oc1csnc1-c1ccccc1 [(103)] |  |  | 
 |  | 5 (≈ 13 µM) |  | 5 (≈ 13 µM) | Oc1c(-c2ccccc2)nsc1Sc1snc(-c2ccccc2)c1O [(107)] |  |  | 
500 (≈ 2610 µM) | 250 (≈ 1310 µM) | 50 (≈ 261 µM) | 500 (≈ 2610 µM) |  | Oc1csnc1Cc1ccccc1 [(104)] |  |  | 
500 (≈ 2440 µM) | 500 (≈ 2440 µM) | 500 (≈ 2440 µM) | 100 (≈ 487 µM) | 500 (≈ 2440 µM) | CCc1snc(-c2ccccc2)c1O [(106)] |  |  | 
 |  |  |  | 2 (≈ 4.76 µM) | Oc1c(-c2ccc(F)cc2)nsc1Sc1snc(-c2ccc(F)cc2)c1O [(109)] |  |  | 

Structure (SMILES) | MIC [1] [µg/mL] | MIC [2] [µg/mL] | MIC [3, 8] [µg/mL] | MIC [4] [µg/mL] | MIC [5] [µg/mL] | MIC [6] [µg/mL] | MIC [7] [µg/mL] | MIC ([3]; ATCC6538, read-out: MIC (Minimum Inhibitory Concentration) Staphylococcus aureus ATCC 6538) [µg/mL]
Oc1c(-c2ccccc2)nsc1-c1ccccc1 [(102)] | 50 (≈ 197 µM) | 5 (≈ 19.7 µM) | 10 (≈ 39.5 µM) | 13 (≈ 51.3 µM) | 50 (≈ 197 µM) |  |  | 
